Source: US20030216444A1, “Benzoylpyridine derivative or its salt, fungicide containing it as an active ingredient, its production process and intermediate for producing it” (priority 2000, published 2003)

| SMILES | melting point |
| --- | --- |
| COc1cc(C)c(C(=O)c2c(C(F)(F)F)cc(Cl)nc2Cl)c(OC)c1OC [compound No. 3, 3-(2,3,4-trimethoxy-6-methylbenzoyl)-2,6-dichloro-4-trifluoromethylpyridine] | 81 to 83 °C |
| COc1cc(C)c(C(=O)c2cnccc2C(F)(F)F)c(OC)c1OC [compound No. 7, 3-(2,3,4-trimethoxy-6-methylbenzoyl)-4-trifluoromethylpyridine] | 59 to 62 °C |
| COc1cc(C)c(C(=O)c2c(C(F)(F)F)ccnc2Cl)c(OC)c1OC [compound No. 11, 3-(2,3,4-trimethoxy-6-methylbenzoyl)-2-chloro-4-trifluoromethylpyridine] | 110 to 112 °C |
| COc1cc(C)c(C(=O)c2c(C(F)(F)F)ccnc2Cl)cc1OCc1ccccc1 [compound No. 27, 3-(5-benzyloxy-4-methoxy-2-methylbenzoyl)-2-chloro-4-trifluoromethylpyridine] | 116 to 117 °C |
| COc1cc(C)c(C(=O)c2c(C(F)(F)F)ccnc2OC)cc1OC [compound No. 32, 3-(4,5-dimethoxy-2-methylbenzoyl)-2-methoxy-4-trifluoromethylpyridine] | 125 to 127 °C |
| COc1cc(C)c(C(=O)c2c(Cl)nc(Cl)c(C(C)=O)c2C(F)(F)F)c(OC)c1OC [compound No. 62, 5-(2,3,4-trimethoxy-6-methylbenzoyl)-3-acetyl-2,6-dichloro-4-trifluoromethylpyridine] | 109 to 112 °C |
| COc1cc(C)c(C(=O)c2c(Cl)cnc(Cl)c2C(F)(F)F)c(OC)c1OC [compound No. 90, 4-(2,3,4-trimethoxy-6-methylbenzoyl)-2,5-dichloro-3-trifluoromethylpyridine] | 106 to 109 °C |
| COc1cc(C)c(C(=O)c2c(Cl)cncc2C(F)(F)F)c(OC)c1OC [compound No. 102, 4-(2,3,4-trimethoxy-6-methylbenzoyl)-3-chloro-5-trifluoromethylpyridine] | 75 to 77 °C |
| COc1cc(C)c(C(=O)c2c(OC)cncc2C(F)(F)F)c(OC)c1OC [compound No. 122, 4-(2,3,4-trimethoxy-6-methylbenzoyl)-3-methoxy-5-trifluoromethylpyridine] | 103 to 106 °C |
| COc1cc(C)c(C(=O)c2c(OC)cnc(Cl)c2C(F)(F)F)c(OC)c1OC [compound No. 123, 4-(2,3,4-trimethoxy-6-methylbenzoyl)-2-chloro-3-trifluoromethyl-5-methoxypyridine] | 117 to 119 °C |
| COc1cc(C)c(C(=O)c2c(OC)cnc(Br)c2C(F)(F)F)c(OC)c1OC [compound No. 124, 4-(2,3,4-trimethoxy-6-methylbenzoyl)-2-bromo-3-trifluoromethyl-5-methoxypyridine] | 145 to 147 °C |
| COc1cc(C)c(C(=O)c2c(Cl)cnc(Cl)c2Cl)c(OC)c1OC [compound No. 186, 4-(2,3,4-trimethoxy-6-methylbenzoyl)-2,3,5-trichloropyridine] | 60 to 61 °C |
| COc1cc(C)c(C(=O)c2c(Cl)cncc2Cl)c(OC)c1OC [compound No. 191, 4-(2,3,4-trimethoxy-6-methylbenzoyl)-3,5-dichloropyridine] | 109 to 111 °C |
| COc1cc(C)c(C(=O)c2c(OC)cnc(Cl)c2Cl)c(OC)c1OC [compound No. 193, 4-(2,3,4-trimethoxy-6-methylbenzoyl)-2,3-dichloro-5-methoxypyridine] | 98 to 99 °C |
| COc1cc(C)c(C(=O)c2c(C)cncc2Br)c(OC)c1OC [compound No. 228, 4-(2,3,4-trimethoxy-6-methylbenzoyl)-3-bromo-5-methylpyridine] | 88 to 93 °C |
| COc1cc(C)c(C(=O)c2c(OC)cnc(Br)c2Cl)c(OC)c1OC [compound No. 245, 4-(2,3,4-trimethoxy-6-methylbenzoyl)-2bromo-3-chloro-5-methoxypyridine] | 97 to 99 °C |
